# Experimental data published in ChEMBL document CHEMBL3885881, “DrugMatrix”.
# Species: Rattus norvegicus
# Experiment: DrugMatrix - Regimen: Daily Repeat
# Assay type: toxicity, organism-based, Sprague-Dawley
# Parameters: regimen Daily Repeat, gender Male, age 6-8 weeks
# Details: in vivo, po, route oral GAVAGE, […]; for ABSOLUTE BASOPHIL / ABSOLUTE EOSINOPHIL / ABSOLUTE LYMPHOCYTE / ABSOLUTE MONOCYTE / ABSOLUTE SEGMENTED NEUTROPHIL / BASOPHIL / EOSINOPHIL / ERYTHROCYTE COUNT / HEMATOCRIT / HEMOGLOBIN / LEUKOCYTE COUNT / LYMPHOCYTE / MEAN CORPUSCULAR HEMOGLOBIN / MEAN CORPUSCULAR HEMOGLOBIN CONCENTRATION / MEAN CORPUSCULAR VOLUME / MONOCYTE / NEUTROPHIL / NUCLEATED RED BLOOD CELLS / PLATELET COUNT: tissue Blood; for ALANINE AMINOTRANSFERASE / ALBUMIN / ALKALINE PHOSPHATASE / ASPARTATE AMINOTRANSFERASE / BLOOD UREA NITROGEN / CARBON DIOXIDE / CHLORIDE / CHOLESTEROL / CREATINE PHOSPHOKINASE / CREATININE / GLUCOSE / LACTATE DEHYDROGENASE / LIPASE / PHOSPHORUS / POTASSIUM / SODIUM / TOTAL BILIRUBIN / TOTAL PROTEIN / URIC ACID: tissue Plasma
# [1] = 0 mg/kg, 72 h, dose level Control, time 3 day
# [2] = 0 mg/kg, dose level Control, time 7 day
# [3] = 30 mg/kg, 72 h, dose level Low, time 3 day
structure (smiles),measurement,setting,value
S=C=Nc1cccc2ccccc12 [1-NAPHTHYLISOTHIOCYANATE],ABSOLUTE BASOPHIL,[1],0 CELLS/uL
same,ABSOLUTE EOSINOPHIL,[1],47.5 CELLS/uL
same,ABSOLUTE LYMPHOCYTE,[1],9600.67 CELLS/uL
same,ABSOLUTE MONOCYTE,[1],195.5 CELLS/uL
same,ABSOLUTE SEGMENTED NEUTROPHIL,[1],839.67 CELLS/uL
same,BASOPHIL,[1],0%
same,EOSINOPHIL,[1],0.5%
same,ERYTHROCYTE COUNT,[1],5.26 x10E6/uL
same,HEMATOCRIT,[1],34.48%
same,HEMOGLOBIN,[1],12.77 G/DL
same,LEUKOCYTE COUNT,[1],10.68 x10E3/uL
same,LYMPHOCYTE,[1],89.67%
same,MEAN CORPUSCULAR HEMOGLOBIN,[1],24.3 pg
same,MEAN CORPUSCULAR HEMOGLOBIN CONCENTRATION,[1],37.05 G/DL
same,MEAN CORPUSCULAR VOLUME,[1],65.62 fL
same,MONOCYTE,[1],1.83%
same,NEUTROPHIL,[1],8%
same,NUCLEATED RED BLOOD CELLS,[1],0.17 /100WBC
same,PLATELET COUNT,[1],1038.67 x10E3/uL
same,ALANINE AMINOTRANSFERASE,[1],65.17 u/L
same,ALBUMIN,[1],4.2 G/DL
same,ALKALINE PHOSPHATASE,[1],377.5 u/L
same,ASPARTATE AMINOTRANSFERASE,[1],90.5 u/L
same,BLOOD UREA NITROGEN,[1],13.5 mg/dL
same,CARBON DIOXIDE,[1],31.17 mmol/L
same,CHLORIDE,[1],98.33 MEQ/L
same,CHOLESTEROL,[1],66.33 mg/dL
same,CREATINE PHOSPHOKINASE,[1],478.83 u/L
same,CREATININE,[1],0.19 mg/dL
same,GLUCOSE,[1],155.17 mg/dL
same,LACTATE DEHYDROGENASE,[1],107.5 u/L
same,LIPASE,[1],10.33 u/L
same,PHOSPHORUS,[1],9.25 mg/dL
same,POTASSIUM,[1],5.43 MEQ/L
same,SODIUM,[1],142.05 MEQ/L
same,TOTAL BILIRUBIN,[1],0.12 mg/dL
same,TOTAL PROTEIN,[1],5.95 G/DL
same,URIC ACID,[1],0.62 mg/dL
same,ABSOLUTE BASOPHIL,[2],0 CELLS/uL
same,ABSOLUTE EOSINOPHIL,[2],43.5 CELLS/uL
same,ABSOLUTE LYMPHOCYTE,[2],9369.83 CELLS/uL
same,ABSOLUTE MONOCYTE,[2],196.17 CELLS/uL
same,ABSOLUTE SEGMENTED NEUTROPHIL,[2],723.83 CELLS/uL
same,BASOPHIL,[2],0%
same,EOSINOPHIL,[2],0.5%
same,ERYTHROCYTE COUNT,[2],5.09 x10E6/uL
same,HEMATOCRIT,[2],32.42%
same,HEMOGLOBIN,[2],13.1 G/DL
same,LEUKOCYTE COUNT,[2],10.33 x10E3/uL
same,LYMPHOCYTE,[2],90.83%
same,MEAN CORPUSCULAR HEMOGLOBIN,[2],25.75 pg
same,MEAN CORPUSCULAR HEMOGLOBIN CONCENTRATION,[2],40.43 G/DL
same,MEAN CORPUSCULAR VOLUME,[2],63.62 fL
same,MONOCYTE,[2],1.67%
same,NEUTROPHIL,[2],7%
same,NUCLEATED RED BLOOD CELLS,[2],0 /100WBC
same,PLATELET COUNT,[2],1106.5 x10E3/uL
same,ALANINE AMINOTRANSFERASE,[2],48.67 u/L
same,ALBUMIN,[2],4.13 G/DL
same,ALKALINE PHOSPHATASE,[2],275.17 u/L
same,ASPARTATE AMINOTRANSFERASE,[2],73.17 u/L
same,BLOOD UREA NITROGEN,[2],13.17 mg/dL
same,CARBON DIOXIDE,[2],27.5 mmol/L
same,CHLORIDE,[2],99.67 MEQ/L
same,CHOLESTEROL,[2],60.83 mg/dL
same,CREATINE PHOSPHOKINASE,[2],213 u/L
same,CREATININE,[2],0.2 mg/dL
same,GLUCOSE,[2],166.67 mg/dL
same,LACTATE DEHYDROGENASE,[2],94.5 u/L
same,LIPASE,[2],10.5 u/L
same,PHOSPHORUS,[2],9.98 mg/dL
same,POTASSIUM,[2],5.3 MEQ/L
same,SODIUM,[2],140.77 MEQ/L
same,TOTAL BILIRUBIN,[2],0.15 mg/dL
same,TOTAL PROTEIN,[2],5.88 G/DL
same,URIC ACID,[2],0.82 mg/dL
same,ABSOLUTE BASOPHIL,[3],0 CELLS/uL
same,ABSOLUTE EOSINOPHIL,[3],54.67 CELLS/uL
same,ABSOLUTE LYMPHOCYTE,[3],18655.83 CELLS/uL
same,ABSOLUTE MONOCYTE,[3],720.5 CELLS/uL
same,ABSOLUTE SEGMENTED NEUTROPHIL,[3],2902.33 CELLS/uL
same,BASOPHIL,[3],0%
same,EOSINOPHIL,[3],0.33%
same,ERYTHROCYTE COUNT,[3],6.41 x10E6/uL
same,HEMATOCRIT,[3],39.98%
same,HEMOGLOBIN,[3],14.27 G/DL
same,LEUKOCYTE COUNT,[3],22.33 x10E3/uL
same,LYMPHOCYTE,[3],84.17%
same,MEAN CORPUSCULAR HEMOGLOBIN,[3],22.4 pg
same,MEAN CORPUSCULAR HEMOGLOBIN CONCENTRATION,[3],35.92 G/DL
same,MEAN CORPUSCULAR VOLUME,[3],62.38 fL
same,MONOCYTE,[3],3.17%
same,NEUTROPHIL,[3],12.33%
same,NUCLEATED RED BLOOD CELLS,[3],0 /100WBC
same,PLATELET COUNT,[3],844.83 x10E3/uL
same,ALANINE AMINOTRANSFERASE,[3],264.83 u/L
same,ALBUMIN,[3],3.62 G/DL
same,ALKALINE PHOSPHATASE,[3],660.67 u/L
same,ASPARTATE AMINOTRANSFERASE,[3],415.67 u/L
same,BLOOD UREA NITROGEN,[3],12.67 mg/dL
same,CARBON DIOXIDE,[3],28.83 mmol/L
same,CHLORIDE,[3],98 MEQ/L
same,CHOLESTEROL,[3],282.33 mg/dL
same,CREATINE PHOSPHOKINASE,[3],281.83 u/L
same,CREATININE,[3],0.18 mg/dL
same,GLUCOSE,[3],117.33 mg/dL
same,LACTATE DEHYDROGENASE,[3],160.33 u/L
same,LIPASE,[3],11.33 u/L
same,PHOSPHORUS,[3],9.08 mg/dL
same,POTASSIUM,[3],6.45 MEQ/L
same,SODIUM,[3],141.7 MEQ/L
same,TOTAL BILIRUBIN,[3],3.02 mg/dL
same,TOTAL PROTEIN,[3],6.22 G/DL
same,URIC ACID,[3],0.85 mg/dL
